# Earlier results as cited in patent US20240117023A1, “METHOD” (Agency for Science, Technology and Research, priority 2021, published 2024).
# Test system: RA and OA animal models
# Conditions: in vivo; cited from earlier work
structure (smiles),measurement,value
CN1C(=O)N(C[C@H](C(=O)NO)[C@@H](CC2CCCC2)C(=O)N2CCCCC2)C(=O)C1(C)C [Trocade],effect in animal models,protective effects against RA and OA
